Measurements published in publication PMC2836797 (FEBS letters, 2010).

Assays:
Format in all cases: biochemical
[1] = biological target: ND5 subunit of NADH:ubiquinone oxidoreductase (complex I) (Bos taurus, UniProt P03920); details: read-out: -6M urea
[2] = biological target: ND2 subunit of NADH:ubiquinone oxidoreductase (complex I) (Bos taurus, UniProt P03892)
[3] = biological target: ND1 subunit of NADH:ubiquinone oxidoreductase (complex I) (Bos taurus, UniProt P03887); assay: photoaffinity labeling of SMP with [3H]BPA, BN-PAGE/dSDS-PAGE radioactivity

Measured: IC50

Sequence of ND5 subunit of NADH:ubiquinone oxidoreductase (complex I) (P03920 whole entry, one chain of several): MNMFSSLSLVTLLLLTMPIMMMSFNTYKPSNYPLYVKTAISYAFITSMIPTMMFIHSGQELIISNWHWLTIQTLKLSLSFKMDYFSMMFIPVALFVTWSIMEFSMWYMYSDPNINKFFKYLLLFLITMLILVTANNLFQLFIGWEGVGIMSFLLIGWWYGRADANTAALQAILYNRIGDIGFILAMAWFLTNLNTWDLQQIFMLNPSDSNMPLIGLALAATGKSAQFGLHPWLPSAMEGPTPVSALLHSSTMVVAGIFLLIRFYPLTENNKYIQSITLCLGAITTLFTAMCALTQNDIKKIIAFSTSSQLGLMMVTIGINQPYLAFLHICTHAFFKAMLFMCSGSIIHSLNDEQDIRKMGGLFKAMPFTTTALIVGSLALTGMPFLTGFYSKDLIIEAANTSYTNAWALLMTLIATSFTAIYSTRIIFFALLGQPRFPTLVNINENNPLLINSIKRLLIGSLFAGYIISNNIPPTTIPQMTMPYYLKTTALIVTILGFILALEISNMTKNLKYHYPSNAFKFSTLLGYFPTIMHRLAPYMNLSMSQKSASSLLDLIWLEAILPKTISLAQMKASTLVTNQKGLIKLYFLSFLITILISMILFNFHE
Sequence of ND2 subunit of NADH:ubiquinone oxidoreductase (complex I) (P03892 whole entry, one chain of several): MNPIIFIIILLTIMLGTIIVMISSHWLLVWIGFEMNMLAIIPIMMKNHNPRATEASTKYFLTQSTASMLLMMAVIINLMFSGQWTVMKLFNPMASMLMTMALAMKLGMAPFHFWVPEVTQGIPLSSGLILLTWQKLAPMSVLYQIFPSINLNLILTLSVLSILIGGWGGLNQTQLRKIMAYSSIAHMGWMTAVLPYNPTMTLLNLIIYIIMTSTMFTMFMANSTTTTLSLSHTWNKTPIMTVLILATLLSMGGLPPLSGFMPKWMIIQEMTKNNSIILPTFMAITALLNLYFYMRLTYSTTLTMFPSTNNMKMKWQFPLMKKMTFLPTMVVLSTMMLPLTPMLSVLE
Sequence of ND1 subunit of NADH:ubiquinone oxidoreductase (complex I) (P03887 whole entry, one chain of several): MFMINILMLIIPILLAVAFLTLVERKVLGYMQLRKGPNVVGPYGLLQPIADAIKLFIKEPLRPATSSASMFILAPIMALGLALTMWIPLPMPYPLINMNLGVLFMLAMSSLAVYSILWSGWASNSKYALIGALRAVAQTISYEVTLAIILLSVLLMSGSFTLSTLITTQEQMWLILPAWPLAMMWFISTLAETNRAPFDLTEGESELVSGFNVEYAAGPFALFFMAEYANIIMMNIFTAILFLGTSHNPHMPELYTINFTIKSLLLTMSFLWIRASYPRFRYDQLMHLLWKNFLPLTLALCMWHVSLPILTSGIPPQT

benzophenone-asimicin [BPA]
~1 nM: [1] | [2] | [3]
